Data: the supplement of paper PMC10307832

Key:
Assay in all cases: relative viability (nuclei count vs DMSO), 5 days (fraction); higher = more cells survive
BEN = system: BEN
Procedure, shortened: (§1)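 Dosing by pin tool came one day after lung cancer cell lines were seeded in 1536-well plates, using either one drug or a fixed anchor-drug dose plus five library-drug doses (not always all listed) in √10 steps. After 5 days, nuclei were counted on 4× images. Relative viability is treated-well nuclei count divided by vehicle-well nuclei count, and values are medians of duplicate plates.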

ChaGo-K-1 = system: ChaGo-K-1
Procedure, shortened: as §1

HCC-78 = system: HCC-78
Procedure, shortened: as §1

LC-2-ad = system: LC-2-ad
Procedure, shortened: as §1

LCLC-97TM1 = system: LCLC-97TM1
Procedure, shortened: as §1

LK-2 = system: LK-2
Procedure, shortened: as §1

LU99A = system: LU99A
Procedure, shortened: as §1

LXF-289 = system: LXF-289
Procedure, shortened: as §1

NCI-H1355 = system: NCI-H1355
Procedure, shortened: as §1

NCI-H1651 = system: NCI-H1651
Procedure, shortened: as §1

NCI-H1666 = system: NCI-H1666
Procedure, shortened: as §1

NCI-H1944 = system: NCI-H1944
Procedure, shortened: as §1

NCI-H1975 = system: NCI-H1975
Procedure, shortened: as §1

NCI-H2087 = system: NCI-H2087
Procedure, shortened: as §1

NCI-H2342 = system: NCI-H2342
Procedure, shortened: as §1

NCI-H358 = system: NCI-H358
Procedure, shortened: as §1

NCI-H596 = system: NCI-H596
Procedure, shortened: as §1

NCI-H650 = system: NCI-H650
Procedure, shortened: as §1

NCI-H661 = system: NCI-H661
Procedure, shortened: as §1

NCI-H838 = system: NCI-H838
Procedure, shortened: as §1

PC-3 [JPC-3] = system: PC-3 [JPC-3]
Procedure, shortened: as §1

SK-MES-1 = system: SK-MES-1
Procedure, shortened: as §1

## O=c1cc(-c2cccc3c2Sc2ccccc2S3)oc(N2CCOCC2)c1 + O=C(c1cc(Cc2n[nH]c(=O)c3ccccc23)ccc1F)N1CCN(C(=O)C2CC2)CC1 [Olaparib] (partner 8 µM)
BEN; first compound 0.08 µM
  relative viability: 0.998
BEN; first compound 0.253 µM
  relative viability: 1.15
BEN; first compound 0.8 µM
  relative viability: 1.04
BEN; first compound 2.53 µM
  relative viability: 0.956
BEN; first compound 8 µM
  relative viability: 1.07
ChaGo-K-1; first compound 0.08 µM
  relative viability: 0.503
ChaGo-K-1; first compound 0.253 µM
  relative viability: 0.494
ChaGo-K-1; first compound 0.8 µM
  relative viability: 0.415
ChaGo-K-1; first compound 2.53 µM
  relative viability: 0.466
ChaGo-K-1; first compound 8 µM
  relative viability: 0.411
HCC-78; first compound 0.08 µM
  relative viability: 0.792
HCC-78; first compound 0.253 µM
  relative viability: 0.853
HCC-78; first compound 0.8 µM
  relative viability: 0.935
HCC-78; first compound 2.53 µM
  relative viability: 0.839
HCC-78; first compound 8 µM
  relative viability: 0.734
LC-2-ad; first compound 0.08 µM
  relative viability: 0.791
LC-2-ad; first compound 0.253 µM
  relative viability: 0.83
LC-2-ad; first compound 0.8 µM
  relative viability: 0.713
LC-2-ad; first compound 2.53 µM
  relative viability: 0.649
LC-2-ad; first compound 8 µM
  relative viability: 0.64
LCLC-97TM1; first compound 0.08 µM
  relative viability: 0.404
LCLC-97TM1; first compound 0.253 µM
  relative viability: 0.555
LCLC-97TM1; first compound 0.8 µM
  relative viability: 0.463
LCLC-97TM1; first compound 2.53 µM
  relative viability: 0.31
LCLC-97TM1; first compound 8 µM
  relative viability: 0.378
LK-2; first compound 0.08 µM
  relative viability: 0.833
LK-2; first compound 0.253 µM
  relative viability: 0.793
LK-2; first compound 0.8 µM
  relative viability: 0.79
LK-2; first compound 2.53 µM
  relative viability: 0.62
LK-2; first compound 8 µM
  relative viability: 0.749
LU99A; first compound 0.08 µM
  relative viability: 0.251
LU99A; first compound 0.253 µM
  relative viability: 0.298
LU99A; first compound 0.8 µM
  relative viability: 0.296
LU99A; first compound 2.53 µM
  relative viability: 0.245
LU99A; first compound 8 µM
  relative viability: 0.214
LXF-289; first compound 0.08 µM
  relative viability: 1.17
LXF-289; first compound 0.253 µM
  relative viability: 1.36
LXF-289; first compound 0.8 µM
  relative viability: 1.18
LXF-289; first compound 2.53 µM
  relative viability: 1.11
LXF-289; first compound 8 µM
  relative viability: 1.21
NCI-H1355; first compound 0.08 µM
  relative viability: 0.801
NCI-H1355; first compound 0.253 µM
  relative viability: 0.916
NCI-H1355; first compound 0.8 µM
  relative viability: 0.65
NCI-H1355; first compound 2.53 µM
  relative viability: 0.717
NCI-H1355; first compound 8 µM
  relative viability: 0.573
NCI-H1651; first compound 0.08 µM
  relative viability: 0.166
NCI-H1651; first compound 0.253 µM
  relative viability: 0.175
NCI-H1651; first compound 0.8 µM
  relative viability: 0.184
NCI-H1651; first compound 2.53 µM
  relative viability: 0.168
NCI-H1651; first compound 8 µM
  relative viability: 0.176
NCI-H1666; first compound 0.08 µM
  relative viability: 0.691
NCI-H1666; first compound 0.253 µM
  relative viability: 0.733
NCI-H1666; first compound 0.8 µM
  relative viability: 0.681
NCI-H1666; first compound 2.53 µM
  relative viability: 0.691
NCI-H1666; first compound 8 µM
  relative viability: 0.671
NCI-H1944; first compound 0.08 µM
  relative viability: 0.401
NCI-H1944; first compound 0.253 µM
  relative viability: 0.401
NCI-H1944; first compound 0.8 µM
  relative viability: 0.414
NCI-H1944; first compound 2.53 µM
  relative viability: 0.43
NCI-H1944; first compound 8 µM
  relative viability: 0.397
NCI-H1975; first compound 0.08 µM
  relative viability: 0.831
NCI-H1975; first compound 0.253 µM
  relative viability: 0.94
NCI-H1975; first compound 0.8 µM
  relative viability: 0.737
NCI-H1975; first compound 2.53 µM
  relative viability: 0.666
NCI-H1975; first compound 8 µM
  relative viability: 0.598
NCI-H2087; first compound 0.08 µM
  relative viability: 0.604
NCI-H2087; first compound 0.253 µM
  relative viability: 0.605
NCI-H2087; first compound 0.8 µM
  relative viability: 0.682
NCI-H2087; first compound 2.53 µM
  relative viability: 0.638
NCI-H2087; first compound 8 µM
  relative viability: 0.561
NCI-H2342; first compound 0.08 µM
  relative viability: 0.52
NCI-H2342; first compound 0.253 µM
  relative viability: 0.419
NCI-H2342; first compound 0.8 µM
  relative viability: 0.476
NCI-H2342; first compound 2.53 µM
  relative viability: 0.471
NCI-H2342; first compound 8 µM
  relative viability: 0.423
NCI-H358; first compound 0.08 µM
  relative viability: 0.636
NCI-H358; first compound 0.253 µM
  relative viability: 0.676
NCI-H358; first compound 0.8 µM
  relative viability: 0.589
NCI-H358; first compound 2.53 µM
  relative viability: 0.64
NCI-H358; first compound 8 µM
  relative viability: 0.719
NCI-H596; first compound 0.08 µM
  relative viability: 0.664
NCI-H596; first compound 0.253 µM
  relative viability: 0.631
NCI-H596; first compound 0.8 µM
  relative viability: 0.504
NCI-H596; first compound 2.53 µM
  relative viability: 0.587
NCI-H596; first compound 8 µM
  relative viability: 0.585
NCI-H650; first compound 0.08 µM
  relative viability: 0.397
NCI-H650; first compound 0.253 µM
  relative viability: 0.402
NCI-H650; first compound 0.8 µM
  relative viability: 0.424
NCI-H650; first compound 2.53 µM
  relative viability: 0.378
NCI-H650; first compound 8 µM
  relative viability: 0.415
NCI-H661; first compound 0.08 µM
  relative viability: 0.809
NCI-H661; first compound 0.253 µM
  relative viability: 0.808
NCI-H661; first compound 0.8 µM
  relative viability: 0.76
NCI-H661; first compound 2.53 µM
  relative viability: 0.777
NCI-H661; first compound 8 µM
  relative viability: 0.712
NCI-H838; first compound 0.08 µM
  relative viability: 0.9
NCI-H838; first compound 0.253 µM
  relative viability: 1.1
NCI-H838; first compound 0.8 µM
  relative viability: 0.752
NCI-H838; first compound 2.53 µM
  relative viability: 0.715
NCI-H838; first compound 8 µM
  relative viability: 0.546
PC-3 [JPC-3]; first compound 0.08 µM
  relative viability: 1.13
PC-3 [JPC-3]; first compound 0.253 µM
  relative viability: 1.01
PC-3 [JPC-3]; first compound 0.8 µM
  relative viability: 0.95
PC-3 [JPC-3]; first compound 2.53 µM
  relative viability: 1.09
PC-3 [JPC-3]; first compound 8 µM
  relative viability: 1.19
SK-MES-1; first compound 0.08 µM
  relative viability: 0.756
SK-MES-1; first compound 0.253 µM
  relative viability: 0.892
SK-MES-1; first compound 0.8 µM
  relative viability: 0.708
SK-MES-1; first compound 2.53 µM
  relative viability: 0.705
SK-MES-1; first compound 8 µM
  relative viability: 0.467
